Key:
[1] = tested on: naïve CD4^+CD62L^+ T cells (responder) with nTreg cells; assay: In vitro nTreg suppression assay; assay type: cell-based, mouse; design: CD4+ T cell activation and proliferation: dose or concentration left out as unconfirmed
Text: Spleens and lymph nodes were harvested from 10 FoxP3-GFP mice on a B6 background. […] Naïve CD4^+ T cells were purified from the rest of the cells as described above. A total of 6.2×10^8 naïve CD4^+ T cells were collected. 5×10^7 cells were set aside to be effector T cells in the experiment. The remainder of the cells (5.7×10^8) were stained with anti-CD4 PE-Cy7, and the PE-Cy7^+/GFP^+ cells were sorted via MoFlo. A total of 4×10^6 nTreg (CD4^+/FoxP3^+) cells were collected from the MoFlo at 99% purity. […] The culture wells also received various ratios of nTreg cells: B7-H4-Ig. nTreg cells (CD4^+/CD62L^+/FoxP3-GFP^+) were isolated from B6/FoxP3-GFP mice by MoFLo sorting. Naïve GFP^− T cells CD4^+/CD62L^+/FoxP3-GFP^−) were used as responder cells. Increasing numbers of the nTreg cells were added to constant numbers of naïve CD4^+CD62L^+ T cells, irradiated splenocytic APCs, and anti-CD3 (FIG. 31). […]

SJL mice = assay: Delayed-type hypersensitivity (DTH) responses, 24 hr ear swelling assay in R-EAE mice; assay type: in vivo, mouse; conditions: given from Day 0, 5 injections, both 3 mg/kg (60 μg) and 15 mg/kg (300 μg); ear challenge Day 10 (FIG. 39)
Description: DTH responses were quantitated using a 24 hr ear swelling assay as previously described. Pre-challenge ear thickness was determined using a Mitutoyo model 7326 engineer's micrometer (Schlesinger's Tools, Brooklyn, N.Y.). Immediately thereafter, DTH responses were elicited by injecting 10 μg of peptide in 10 μL of PBS into the dorsal surface of the ear using a 100 μL Hamilton syringe fitted with a 30 gauge needle. The increase in ear thickness over pre-challenge measurements was determined 24 hr after ear challenge. Results are expressed in units of 10^−4 inches±SEM. […] Significance of ear swelling in murine B7-H4-Ig treated mice over Control IgG injected mice was assessed by the Student's t test.
To determine the effect of B7-H4-Ig on blocking CD4^+ T cell mediated activity specific for the primary myelin-derived epitope PLP139-151 and epitope spreading, peptide-specific responses in vivo via DTH on all 4 treatment groups were analyzed. Mice were ear challenged with 10 μg of the indicated peptides on Day 50, and swelling was measured 24 h later.
To clarify the effect of B7-H4-Ig on the EAE acute phase, a 2nd in vivo experiment was conducted in the PLP139-151 induced MAE model. […] Mice were ear challenged with 10 μg of PLP139-151 on Day 10, and swelling was measured 24 h later. […]

[2] = tested on: CD4^+CD62L^+ naïve T cells; assay: In vitro Th17 polarization: proliferation and cytokine production; assay type: cell-based, mouse; conditions: 0, 0.1, 1 or 10 μg/mL in solution
Description: Mouse splenocytes were first removed isolated from DO11.10 mice, which express an MHC class II restricted T cell receptor specific for OVA323-339. Mouse CD4^+ T cells were purified using a Miltenyi CD4^+ T cell negative isolation kit (Cat#130-090-860). Naïve CD4^+ T cells were further purified using the Miltenyi anti-CD62L positive selection magnetic beads (cat#130-049-701).
CD4^+ CD62L^+ naïve T cells with or without CD25^+ T cells were cultured in serum free HL-1 media in the presence of rTGF-β (10 ng/mL), IL-6 (50 ng/mL), IL-23 (4 ng/mL), anti-IL-4 (1 μg/mL), anti-IFN-γ (1 μg/mL) and anti-IL-2 (1 μg/mL). To provide murine B7-H4-Ig in an immobilized format, 96-well flat bottom plates were first coated with murine B7-H4-Ig, 100 μl per well at 1 μg/mL, and incubated at 37° C. for 2 hours. […] For non-specific antigen activation, Mouse CD3/CD28 T Cell Expander beads (Dynabeads®; Invitrogen, Cat#11452D) was added into each well, at a 1:1 cell to bead ratio. […]
[^3H]-Thymidine (1 μCi/well) was added into each well 24 hr post co-incubation. Proliferation was determined by uptake of [^3H]-thymidine detected at 48 hr post [^3H]-thymidine addition using a Topcount Microplate Scintillation Counter (Packard Instruments, Meridan, Conn.). Results are expressed as the mean of triplicate cultures±SEM. […]

With “B7-H4-Ig: B7-H4 extracellular domain fused to Ig Fc; bare label is the human protein in Example 3, murine protein in Examples 1, 2, 5, 7-11” the “anti-CD3 induced T cell activation” value ([1]; 1:0.12 and 1:0.25 ratios of T cell responder:nTreg, 5 or 10 μg/mL (FIG. 32)) was “completely blocked anti-CD3 induced T cell activation”, the “CD4+ T cell activation and proliferation” value ([1]; absence of nTreg cells (ratio 1:0), 0, 1, 5, or 10, anti-CD3 (FIG. 32)) was “suppressed CD4^+ T cell activation and proliferation in a dose dependent manner” and the “DTH response to PLP139-151 peptide versus OVA323-339 peptide” value (SJL mice) was “significantly inhibited”.

In the case of “Human B7-H4-Ig: human B7-H4 extracellular domain fused to hinge, CH2 and CH3 regions of human immunoglobulin Cγ1 chain; representative SEQ ID NOs:114-137”, the “IL-17 production in Th17 cells” value ([2]; anti-CD3/CD28 beads (FIG. 28)) is reported as “reduced” and the “murine Th17 proliferation” value ([2]; anti-CD3/CD28 beads, dose dependent (FIG. 26)) is reported as “blocked murine Th1/Th17 proliferation”.
